{"source": "paper PMC7949139", "about": "“The molecular basis of OH-PCB estrogen receptor activation” (The Journal of Biological Chemistry, 2021)", "molecules": {"B1": {"name": "WT SULT1E1 (Homo sapiens) (protein)", "chain": "MNSELDYYEKFEEVHGILMYKDFVKYWDNVEAFQARPDDLVIATYPKSGTTWVSEIVYMIYKEGDVEKCKEDVIFNRIPFLECRKENLMNGVKQLDEMNSPRIVKTHLPPELLPASFWEKDCKIIYLCRNAKDVAVSFYYFFLMVAGHPNPGSFPEFVEKFMQGQVPYGSWYKHVKSWWEKGKSPRVLFLFYEDLKEDIRKEVIKLIHFLERKPSEELVDRIIHHTSFQEMKNNPSTNYTTLPDEIMNQKLSPFMRKGITGDWKNHFTVALNEKFDKHYEQQMKESTLKFRTEI", "notes": "E. coli codon-optimized SULT1E1 coding region inserted into the PreScission Protease cleavage site; His/GST/MBP triple tag (N, cleaved yes); made in house; host or cells: E. coli BL21(DE3)"}, "B2": {"name": "SULT1E1 F75A (Homo sapiens; F75A) (protein)", "chain": "B1 chain with F75A", "notes": "as for B1"}, "B3": {"name": "SULT1E1 F80A (Homo sapiens; F80A) (protein)", "chain": "B1 chain with F80A", "notes": "as for B1"}, "B4": {"name": "SULT1E1 Y239A (Homo sapiens; Y239A) (protein)", "chain": "B1 chain with Y239A", "notes": "as for B1"}, "B5": {"name": "SULT1E1 F80A/F75A (Homo sapiens; F75A/F80A) (protein)", "chain": "B1 chain with F75A, F80A", "notes": "as for B1"}}, "key": {"[1]": {"target": "T1, SULT1E1 (Homo sapiens, UniProt P49888)", "T1 construct": "E. coli codon-optimized SULT1E1 coding region inserted into the PreScission Protease cleavage site; His/GST/MBP triple tag (N, cleaved yes); made in house; host or cells: E. coli BL21(DE3)", "T1 sequence (P49888 1-294)": "B1 chain", "assay": "Equilibrium binding studies (SULT1E1 intrinsic fluorescence)", "settings": "for Kd: pH 7.4, 25 °C, spread = one SD", "method": "The binding of inhibitors to WT and mutant SULT1E1 was monitored via ligand-induced changes in the intrinsic fluorescence of the enzyme (λex= 290 nm, λem= 340 nm) ([4]). […] C. Titrations were performed in triplicate and the averaged data were least-squares fit to the following quadratic, single-site binding model: Io − ΔI∙(([L]+Etot + Kd) − [([L]+Etot + Kd)^2 − (4∙[L]∙Etot)]^1/2)/2∙Etot, where Io and ΔI represent fluorescent intensity at zero and infinite [L]."}, "[2]": {"test_system": "estrogen receptor (ER) activation in (-) SULT1E1 control Ishikawa cells", "assay": "Estrogen receptor activation (alkaline phosphatase activity), control strain", "assay_type": "cell-based", "settings": "Homo sapiens, read-out: Ligand EC50, ER activation", "method": "(§1) pcDNA 3.1 constructs harboring either the SULT1E1 WT or double mutant (F75A/F80A) coding regions were generated using Gibson Assembly ([74]). The vectors were linearized using BGIII. Ishikawa cells were grown at 37 °C ± 2 deg. C in growth medium (MEM media containing 10% v/v FBS). At confluence, the cells were washed (3×) with PBS media before coating with an Opti-MEM solution containing a linearized construct (50 ng μg^−1) and lipofectamine (2.5 units ml^−1). After 24 h at 37 °C ± 2 deg. C, cells were washed (3×) with PBS before adding growth medium containing neomycin (400 μg ml^−1) to select transfectants. Selective growth medium was replenished every 48 h until single colonies could be isolated (∼3–6 weeks). Single colonies were transferred using trypsin digest (0.05%) to 12-well plates and grown at 37 °C ± 2 deg. C to confluence for further experimentation and storage.\n(§2) Transfected Ishikawa cells were grown at 37 °C ± 2 deg. C to 60 to 70% confluency in MEM containing 10% v/v FBS. Cells were then transferred to 96-well tissue culture plates and grown at 37 °C ± 2 deg. C to 80% confluency in MEM containing 10% v/v charcoal filtered FBS. The plate was then washed with PBS and grown at 37 °C ± 2 deg. C for 24 h in MEM without FBS. Estradiol (0–3.0 μM) and OH-PCB (0–1.0 μM) solubilized in neat DMSO were added and cells were incubated at 37 °C ± 2 deg. C for 5 days. The final concentrations of DMSO were ≤0.10%. Cells were then washed twice with PBS before adding pNpp (5.0 mM) in PBS ([75]). Following incubation with pNpp for 3 h at 25 °C ± 2 deg. C, wells were read at 405 nm using a Synergy HT BioTek Plate Reader."}, "[3]": {"test_system": "estrogen receptor (ER) activation in Ishikawa cells expressing F75A/F80A SULT1E1", "assay": "cells", "assay_type": "cell-based, human", "settings": "for EC50: Homo sapiens, Ishikawa, read-out: Ligand EC50, ER activation", "method": "as §1, §2"}, "[4]": {"test_system": "estrogen receptor (ER) activation in Ishikawa cells expressing WT SULT1E1", "assay": "cells", "assay_type": "cell-based, human", "settings": "for EC50: Homo sapiens, Ishikawa, read-out: Ligand EC50, ER activation", "method": "as §1, §2"}, "[5]": {"target": "T1, SULT1E1", "design": "method as in PMID 9556564", "settings": "E2 as substrate; cited from earlier work"}, "[6]": {"target": "T2, WT SULT1E1 (Homo sapiens, UniProt P49888)", "T2 construct": "E. coli codon-optimized SULT1E1 coding region inserted into the PreScission Protease cleavage site; His/GST/MBP triple tag (N, cleaved yes); made in house; host or cells: E. coli BL21(DE3)", "T2 sequence (P49888 1-294)": "B1 chain", "assay": "Initial-rate studies (1-HP sulfonation; OH-PCB inhibition), WT enzyme", "assay_type": "biochemical", "settings": "compared with ER-activation EC50 values; read-out: Ki values (SULT1E1)", "method": "(§3) C. Reaction progress was monitored via the fluorescence change associated with 1-HP sulfonation (λex = 325 nm, λem = 370 nm ([51], [52])). Initial rates were measured during conversion to product of ≤5% of the concentration-limiting substrate consumed at the reaction endpoint. Velocities were determined in triplicate. Km and kcat were obtained by (1/v^4)-weighted least-squares fitting of the averaged data in double-reciprocal space (i.e., 1/v versus 1/[S]) ([66], [67]).\n(§4) Inhibition studies were performed as described above except: 1-HP was fixed (2.0 μM, 100 × Km), OH-PCBs were added (0.20–20 × Ki), and SULT1E1 was 0.20 nM (active sites). Ki was determined by least-squares fitting to a noncompetitive inhibition model ([66], [67])."}, "[7]": {"target": "T1, SULT1E1", "design": "method as in PMID 10803601", "settings": "read-out: Ki (SULT1E1 inhibition); cited from earlier work"}, "[8]": {"substrate": "Oc1ccc2ccc3cccc4ccc1c2c34", "assay": "Initial-rate studies (1-HP sulfonation; OH-PCB inhibition), WT enzyme", "assay_type": "biochemical, human", "settings": "other: WT, PAPS 0.30 mM, pH 7.5, 25 °C, parentheses = one SD", "method": "as §3, §4"}, "[9]": {"substrate": "C[C@]12CC[C@@H]3c4ccc(O)cc4CC[C@H]3[C@@H]1CC[C@@H]2O", "assay": "E2 sulfonation initial-rate assay ([3H]-E2), WT", "assay_type": "biochemical, human", "settings": "other: WT, [3H]-E2, PAPS 0.30 mM, pH 7.5, 25 °C, parentheses = one SD", "method": "(§5) SULT1E1-catalyzed conversion of [^3H]-E2 to [^3H]-E2-sulfate was quantitated as previously described ([68]). […] C. […] The reaction mixture was diluted tenfold with an E2 (10 μM), KPO4 (50 mM), pH 7.5 solution, and brought to pH 7.0 with HCl (6.0 N). The reaction was then mixed (1:1 v/v) with neat chloroform and centrifuged (15,000g, 5.0 min). The aqueous layer was removed, chloroform was extracted twice more, and radioactivity in the aqueous layer was then determined by liquid scintillation counting. Reactions were performed in triplicate and Km and kcat were obtained by (1/v^4)-weighted least-squares fitting of the data in double-reciprocal space (i.e., 1/v versus 1/[S]) ([67])."}, "[10]": {"substrate": "Oc1ccc2ccc3cccc4ccc1c2c34", "assay": "Initial-rate studies (1-HP sulfonation; OH-PCB1 inhibition), F75A mutant", "assay_type": "biochemical, human", "settings": "other: F75A; parentheses = one SD; pH 7.5; 25.0 °C", "method": "as §3, §4"}, "[11]": {"substrate": "Oc1ccc2ccc3cccc4ccc1c2c34", "assay": "Initial-rate studies (1-HP sulfonation; OH-PCB1 inhibition), F80A mutant", "assay_type": "biochemical, human", "settings": "other: F80A; parentheses = one SD; pH 7.5; 25.0 °C", "method": "as §3, §4"}, "[12]": {"substrate": "Oc1ccc2ccc3cccc4ccc1c2c34", "assay": "Initial-rate studies (1-HP sulfonation; OH-PCB1 inhibition), Y239A mutant", "assay_type": "biochemical, human", "settings": "other: Y239A; parentheses = one SD; pH 7.5; 25.0 °C", "method": "as §3, §4"}, "[13]": {"substrate": "Oc1ccc2ccc3cccc4ccc1c2c34", "assay": "Initial-rate studies (1-HP sulfonation; OH-PCB1 inhibition), double mutant", "assay_type": "biochemical, human", "settings": "other: F80A/F75A; parentheses = one SD; pH 7.5; 25.0 °C", "method": "as §3, §4"}, "[14]": {"substrate": "C[C@]12CC[C@@H]3c4ccc(O)cc4CC[C@H]3[C@@H]1CC[C@@H]2O", "assay": "E2 sulfonation initial-rate assay ([3H]-E2), double mutant", "assay_type": "biochemical, human", "settings": "other: F80A/F75A; parentheses = one SD; 25.0 °C", "method": "as §5"}}, "note": "Residue numbers refer to the chain shown, from its start. In names and notes the source's numbering stands. Read-outs that look alike come from different tables or passages of the source. Marks after values point to notes of the source that are not given here.", "data": [{"molecule": "C[C@]12CC[C@@H]3c4ccc(O)cc4CC[C@H]3[C@@H]1CC[C@@H]2O", "note": "[E2, 17-Beta-estradiol]", "values": [{"measurement": "Kd", "setting": "[1]; OH-PCB1 10 μM, PAP 300 μM, read-out: Kd, ligand binding to enzyme species E⋅PAP⋅OH-PCB1", "result": 0.98, "unit": "nM"}, {"measurement": "fold tighter binding in the presence of the partner ligand (OH-PCB1/E2 interaction)", "setting": "[1]; OH-PCB1: E⋅E2 versus E, E2: E⋅PAP⋅OH-PCB1 versus E⋅PAP", "result": "[…]"}, {"measurement": "Kd", "setting": "[1]; OH-PCB2 7.0 μM (higher partner concentration), PAP 0.30 mM, read-out: Kd, ligand binding to enzyme species E⋅PAP⋅OH-PCB2", "result": 1.1, "unit": "nM"}, {"measurement": "Kd", "setting": "[1]; PAP 300 μM, read-out: Kd, ligand binding to enzyme species E⋅PAP", "result": "[…]"}, {"measurement": "EC50", "setting": "[2]; Control cell line, E2 titration, parentheses = one SD", "result": "[…]"}, {"measurement": "EC50", "setting": "[3]; F75A/F80A cell line, E2 titration, parentheses = one SD", "result": "[…]"}, {"measurement": "ER-activation EC50 of E2, fold higher than in the control strain", "setting": "[3]; MT (F75A/F80A) strain versus control strain", "result": "[…]"}, {"measurement": "EC50", "setting": "[4]; WT cell line, E2 titration, parentheses = one SD", "result": "[…]"}, {"measurement": "ER-activation EC50 of E2, fold higher than in the control strain", "setting": "[4]; WT strain versus control strain", "result": "[…]"}, {"measurement": "Km", "setting": "[5]", "result": "[…]"}]}, {"molecule": "Oc1c(Cl)cc(-c2ccc(Cl)c(Cl)c2)cc1Cl", "note": "[OH-PCB2, 4-OH-3,3',4',5-tetrachlorobiphenol]", "values": [{"measurement": "Ki", "setting": "[6]", "result": 0.5, "unit": "nM"}, {"measurement": "Kd", "setting": "[1]; E2 4.0 μM (higher partner concentration), PAP 300 μM, read-out: Kd, ligand binding to enzyme species E⋅PAP⋅E2", "result": 0.4, "unit": "nM"}, {"measurement": "Kd", "setting": "[1]; free enzyme E, read-out: Kd, ligand binding to enzyme species E", "result": 7.2, "unit": "nM"}, {"measurement": "EC50", "setting": "[2]", "result": "> 1000", "unit": "nM"}, {"measurement": "EC50", "setting": "[3]", "result": "> 1000", "unit": "nM"}, {"measurement": "EC50", "setting": "[4]", "result": 0.87, "unit": "nM"}, {"measurement": "Ki", "setting": "[7]", "result": "~0.4", "unit": "nM"}]}, {"molecule": "B1", "values": [{"measurement": "Km", "setting": "[8]", "result": "25 (2.2) ^c nM"}, {"measurement": "kcat", "setting": "[8]", "result": 0.633, "unit": "s⁻¹"}, {"measurement": "Km", "setting": "[9]", "result": "3.8 (0.2) ^a nM"}, {"measurement": "kcat", "setting": "[9]", "result": 2.5, "unit": "s⁻¹"}]}, {"molecule": "B2", "values": [{"measurement": "Km", "setting": "[10]", "result": "27 (1.7) nM"}, {"measurement": "kcat", "setting": "[10]", "result": 0.6, "unit": "s⁻¹"}]}, {"molecule": "B3", "values": [{"measurement": "Km", "setting": "[11]", "result": "23 (1.8) nM"}, {"measurement": "kcat", "setting": "[11]", "result": 0.583, "unit": "s⁻¹"}]}, {"molecule": "B4", "values": [{"measurement": "Km", "setting": "[12]", "result": "25 (2.3) nM"}, {"measurement": "kcat", "setting": "[12]", "result": 0.633, "unit": "s⁻¹"}]}, {"molecule": "B5", "values": [{"measurement": "Km", "setting": "[13]", "result": "28 (2.2) nM"}, {"measurement": "kcat", "setting": "[13]", "result": 0.583, "unit": "s⁻¹"}, {"measurement": "Km", "setting": "[14]", "result": "4.0 (0.2) nM"}, {"measurement": "kcat", "setting": "[14]", "result": 2.5, "unit": "s⁻¹"}]}]}
